Experiment [1] has as its target T1, PTP1B(C215S) (Homo sapiens, UniProt P18031, C215S).
T1 construct: PTP1B proteins (wild type and mutant forms) comprising amino acids 1-321 were expressed in E. coli; made in house; host or cells: E. coli
T1 sequence (P18031 1-321 C215S): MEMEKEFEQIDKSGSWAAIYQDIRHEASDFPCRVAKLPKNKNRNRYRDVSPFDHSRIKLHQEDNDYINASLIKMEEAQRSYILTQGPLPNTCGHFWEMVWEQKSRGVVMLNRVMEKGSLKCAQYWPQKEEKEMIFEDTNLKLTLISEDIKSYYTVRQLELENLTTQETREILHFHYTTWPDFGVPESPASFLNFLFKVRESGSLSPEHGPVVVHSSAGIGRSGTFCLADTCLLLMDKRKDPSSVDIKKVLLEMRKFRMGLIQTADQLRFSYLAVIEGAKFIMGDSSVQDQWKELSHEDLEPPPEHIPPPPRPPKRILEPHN
The experiment can be described thus: PTP-1B (CS) binding assay: fluorescence polarization binding of fluorescein-labeled phosphotyrosyl peptides. The note with it: Table 1; midpoint of bound/unbound transition (apparent Kd). The method, then:
(§1) Two assay parameters were measured: (1) the dynamic range of the signal (i.e. the difference between polarization values of the bound and the unbound fluorescent substrate) and (2) the midpoint of the transition between bound and unbound that represents the apparent Kd (i.e. affinity) of each binding mutant for each peptide.
(§2) Assays were set up at room temperature in black polypropylene 96 well microtiter plates (Polyfiltronics, Whatman, U. K.) by the sequential addition of 40 μl of Assay Buffer, 40 μl of diluted binding protein and 40 μl of 0.3 nM fluorescein-labeled substrate peptide. After 15 min plates were read in a Criterion Analyst™ (LJL BioSystems, Inc., Sunnyvale, Calif.) in fluorescence polarization detection mode using the parameters listed as follows:
(§3) To obtain values for background fluorescence, assays were set up as above except the fluorescein-labeled substrate was replaced with Assay Buffer. To determine the fluorescence polarization values for the unbound substrate peptide, assays were set up as above except that the 40 μl of diluted binding protein was replaced with Assay Buffer.
In general terms: Polarisation of emitted light reports the rotation of a fluorescent probe.

In experiment [2] the target is LAR (Homo sapiens, UniProt P10586). The following applies: insulin receptor 1142-1152 peptide, pTyr1146; cited from earlier work.
Experiment [3] addresses T2, PTP1B(D181A) (Homo sapiens, UniProt P18031, D181A).
T2 construct: PTP1B proteins (wild type and mutant forms) comprising amino acids 1-321 were expressed in E. coli; made in house; host or cells: E. coli
T2 sequence (P18031 1-321 D181A): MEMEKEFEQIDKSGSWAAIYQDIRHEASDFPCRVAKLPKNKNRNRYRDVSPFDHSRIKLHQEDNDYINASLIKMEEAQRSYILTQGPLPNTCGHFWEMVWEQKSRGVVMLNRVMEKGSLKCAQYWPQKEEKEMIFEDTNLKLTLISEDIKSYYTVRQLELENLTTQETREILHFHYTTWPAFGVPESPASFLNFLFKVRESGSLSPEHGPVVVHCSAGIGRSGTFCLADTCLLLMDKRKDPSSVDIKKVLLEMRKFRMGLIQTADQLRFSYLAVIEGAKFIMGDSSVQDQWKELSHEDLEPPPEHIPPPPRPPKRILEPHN
The experiment can be described thus: PTP-1B (DA) binding assay: fluorescence polarization binding of fluorescein-labeled phosphotyrosyl peptides. The following applies: Table 2; midpoint of bound/unbound transition (apparent Kd). Here is the method:
as §1, §2, §3

The target in experiment [4] is T3, C215S PTP1B (Homo sapiens, UniProt P18031, C215S).
T3 construct: PTP1B proteins (wild type and mutant forms) comprising amino acids 1-321 were expressed in E. coli; made in house; host or cells: E. coli
T3 sequence (P18031 1-321 C215S): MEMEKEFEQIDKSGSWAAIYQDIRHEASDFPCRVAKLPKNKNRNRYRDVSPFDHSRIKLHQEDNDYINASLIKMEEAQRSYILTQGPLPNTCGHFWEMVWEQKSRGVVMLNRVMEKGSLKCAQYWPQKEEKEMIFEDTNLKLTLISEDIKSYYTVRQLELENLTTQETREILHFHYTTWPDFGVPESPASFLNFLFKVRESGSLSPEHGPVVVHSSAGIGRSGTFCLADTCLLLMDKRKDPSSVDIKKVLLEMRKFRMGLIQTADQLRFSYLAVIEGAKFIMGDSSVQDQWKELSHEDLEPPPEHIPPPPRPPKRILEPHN
As to the kind of experiment: Inhibition of fluorescent EGF receptor peptide binding to CS substrate binding mutant (FP). The following applies: Table 3; fluorescein-labeled EGF receptor peptide. The method, then:
(§4) To the test agents was added 40 μl of 3 nM CS or DA binding mutant of PTP1B in Assay Buffer. Plates were shaken for 30 sec to mix the two solutions. After another 12.5 minutes 40 μl of 3 nM fluorescein-labeled EGF receptor peptide was added and the solutions mixed for 30 sec. After 12.5 minutes of incubation the plates were read as described in Example 3.

The target of experiment [5] is T4, D181A PTP1B (Homo sapiens, UniProt P18031, D181A).
T4 construct: PTP1B proteins (wild type and mutant forms) comprising amino acids 1-321 were expressed in E. coli; made in house; host or cells: E. coli
T4 sequence (P18031 1-321 D181A): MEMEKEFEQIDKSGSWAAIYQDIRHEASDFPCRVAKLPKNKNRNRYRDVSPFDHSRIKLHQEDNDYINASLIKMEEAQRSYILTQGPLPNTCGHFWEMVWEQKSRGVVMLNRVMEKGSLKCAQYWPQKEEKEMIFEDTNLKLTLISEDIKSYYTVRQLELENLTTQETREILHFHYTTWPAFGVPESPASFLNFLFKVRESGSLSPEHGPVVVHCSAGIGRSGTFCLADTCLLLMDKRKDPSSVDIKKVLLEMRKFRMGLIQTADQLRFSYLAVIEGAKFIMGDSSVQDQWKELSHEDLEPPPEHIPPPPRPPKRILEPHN
As to the kind of experiment: Inhibition of fluorescent EGF receptor peptide binding to DA substrate binding mutant (FP). Here is the method: as §4

In experiment [6] the target is T5, PTP1B (Homo sapiens, UniProt P18031).
T5 construct: PTP1B proteins (wild type and mutant forms) comprising amino acids 1-321 were expressed in E. coli; made in house; host or cells: E. coli
T5 sequence (P18031 1-321): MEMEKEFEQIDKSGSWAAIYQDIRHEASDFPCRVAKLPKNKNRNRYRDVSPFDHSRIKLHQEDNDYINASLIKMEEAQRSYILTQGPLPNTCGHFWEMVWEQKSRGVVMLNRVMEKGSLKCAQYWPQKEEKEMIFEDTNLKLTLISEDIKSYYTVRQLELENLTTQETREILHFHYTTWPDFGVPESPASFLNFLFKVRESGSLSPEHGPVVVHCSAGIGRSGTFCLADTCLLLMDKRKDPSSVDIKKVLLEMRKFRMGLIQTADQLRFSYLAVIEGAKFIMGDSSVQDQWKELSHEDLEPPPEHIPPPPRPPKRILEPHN
The experiment can be described thus: PTP catalytic assay of F-ERP-P dephosphorylation with alternate reaction terminator molecules (FP). The following applies: 2 mM in terminator solution with C215S PTP1B or G104. In kind it is biochemical. Here is the method: The ability of each reaction terminator molecule also was assessed in the presence and absence of vanadate (a well known, nonspecific PTP inhibitor).
Assays were set up in black polypropylene plates with 20 μl of 25 mM Tris HCl pH 7.5 and 20 μl of 300 nM F-ERP-P in 25 mM Tris HCl pH 7.5, 1 mM EDTA, 1 mM DTT, 0.25 mg/ml ovalbumin (TEOD buffer). […] Plates were read using the Polarstar instrument from BMG Lab Technologies using the following settings:
As in Example 3, wells were set up to measure background fluorescence to allow proper calculation of mP values and other wells were set up without addition of terminator reagent to assess the minimum polarization value of the unbound fluorescent phosphotyrosyl peptide (F-ERP-P).

[7] abbreviates: Table 3, fluorescein-labeled EGF receptor peptide, read-out: D181A IC50.

Where two headings read alike, the source gives them in different places.

LAR, sequence (P10586 30-1907, species assumed): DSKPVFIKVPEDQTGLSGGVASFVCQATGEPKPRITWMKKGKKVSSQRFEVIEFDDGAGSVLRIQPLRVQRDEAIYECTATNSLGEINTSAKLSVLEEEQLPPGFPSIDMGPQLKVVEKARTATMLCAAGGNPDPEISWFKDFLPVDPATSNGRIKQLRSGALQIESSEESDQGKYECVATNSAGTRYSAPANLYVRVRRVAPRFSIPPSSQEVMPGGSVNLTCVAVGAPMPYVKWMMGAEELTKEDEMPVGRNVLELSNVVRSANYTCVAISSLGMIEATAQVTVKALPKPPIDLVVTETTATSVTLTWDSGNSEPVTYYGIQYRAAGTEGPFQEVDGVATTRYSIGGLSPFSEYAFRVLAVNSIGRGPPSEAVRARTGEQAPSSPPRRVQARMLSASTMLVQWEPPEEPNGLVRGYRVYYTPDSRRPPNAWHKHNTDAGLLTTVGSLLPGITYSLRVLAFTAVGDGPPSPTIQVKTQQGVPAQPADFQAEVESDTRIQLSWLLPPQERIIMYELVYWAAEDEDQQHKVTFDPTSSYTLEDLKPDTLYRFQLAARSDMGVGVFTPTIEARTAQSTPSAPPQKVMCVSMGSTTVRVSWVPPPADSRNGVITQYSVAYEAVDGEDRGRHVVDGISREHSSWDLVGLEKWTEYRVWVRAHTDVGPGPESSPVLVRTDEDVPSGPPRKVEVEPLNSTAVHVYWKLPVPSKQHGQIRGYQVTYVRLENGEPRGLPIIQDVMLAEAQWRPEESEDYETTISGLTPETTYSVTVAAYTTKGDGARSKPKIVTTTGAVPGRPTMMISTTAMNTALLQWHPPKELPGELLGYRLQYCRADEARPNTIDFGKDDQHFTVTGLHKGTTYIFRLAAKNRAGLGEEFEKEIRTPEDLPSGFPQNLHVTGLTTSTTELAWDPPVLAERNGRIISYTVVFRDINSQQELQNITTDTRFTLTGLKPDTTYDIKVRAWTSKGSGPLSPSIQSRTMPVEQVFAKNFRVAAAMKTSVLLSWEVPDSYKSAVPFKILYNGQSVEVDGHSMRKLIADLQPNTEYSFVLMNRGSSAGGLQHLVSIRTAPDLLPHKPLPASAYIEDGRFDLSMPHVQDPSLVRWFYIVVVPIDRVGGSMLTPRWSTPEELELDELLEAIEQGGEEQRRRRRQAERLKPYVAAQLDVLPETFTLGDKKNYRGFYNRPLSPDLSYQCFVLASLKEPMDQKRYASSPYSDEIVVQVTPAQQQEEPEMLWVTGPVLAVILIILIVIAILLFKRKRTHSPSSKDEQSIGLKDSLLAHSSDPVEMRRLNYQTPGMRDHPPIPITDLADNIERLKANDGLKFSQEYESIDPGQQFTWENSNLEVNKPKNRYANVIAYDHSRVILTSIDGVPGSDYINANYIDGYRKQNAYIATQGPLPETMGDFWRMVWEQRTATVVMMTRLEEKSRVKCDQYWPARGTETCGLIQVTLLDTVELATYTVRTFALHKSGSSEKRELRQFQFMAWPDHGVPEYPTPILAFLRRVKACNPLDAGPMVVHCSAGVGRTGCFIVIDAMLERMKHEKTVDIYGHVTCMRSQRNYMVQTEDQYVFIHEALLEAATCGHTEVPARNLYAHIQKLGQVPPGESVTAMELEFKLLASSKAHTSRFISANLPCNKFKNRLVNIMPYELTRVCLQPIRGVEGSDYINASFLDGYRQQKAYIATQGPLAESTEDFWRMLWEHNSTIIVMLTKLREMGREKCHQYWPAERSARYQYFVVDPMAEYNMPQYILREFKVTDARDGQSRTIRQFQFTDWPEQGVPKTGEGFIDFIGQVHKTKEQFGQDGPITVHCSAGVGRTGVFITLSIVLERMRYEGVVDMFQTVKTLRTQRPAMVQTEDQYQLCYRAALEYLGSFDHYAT

Usually EC50 stands for the concentration needed to bring the measured effect to its halfway point. For orientation: Km means the substrate concentration at which the rate is half of its maximum. On to `CC[C@H](C)[C@H](NC(=O)[C@H](CC(=O)O)NC(=O)[C@H](CCCNC(=N)N)NC(=O)[C@@H](NC(=O)c1ccc2c(c1)C(=O)OC21c2ccc(O)cc2Oc2cc(O)ccc21)[C@@H](C)O)C(=O)N[C@@H](Cc1ccc(OP(=O)(O)O)cc1)C(=O)N[C@@H](CCC(=O)O)C(=O)N[C@H](C(=O)N[C@@H](CC(=O)O)C(=O)N[C@@H](Cc1ccc(O)cc1)C(=O)N[C@@H](Cc1ccc(O)cc1)C(=O)N[C@@H](CCCNC(=N)N)C(=O)O)[C@@H](C)O` [F-IR-P, T-R-D-1-pY-E-T-D-Y-Y-R], for which the results for the EC50 in experiment [1] and in experiment [3] were 1.16 nM and 0.508 nM, respectively. The Km in experiment [2] is 27 µM.
For orientation: IC50 means the concentration that inhibits the measured activity by half. As for `OO` [H2O2, hydrogen peroxide], the IC50 in experiment [4] was 250 µM; in experiment [5] (setting [7]), 10 µM; in experiment [5] (read-out: IC50 for inhibition of the DA substrate binding mutant) it was approximately 10 µM.
For the compound `N[C@@H](Cc1ccc(OP(=O)(O)O)cc1)C(=O)O` [P-Tyr, phosphotyrosine], the IC50 in experiment [4] is 150 µM; in experiment [5] (setting [7]) it was 120 µM.
`[Na+].[Na+].[Na+].[O]=[V]([O-])([O-])[O-]` [sodium ortho vanadate]: in experiment [6], the “effect of inclusion in the terminator mixes on observed endpoints” value is “did not appear to have any additive effect”.
